Ends that are not written are not given here.
Legend:
IL-10 = IL-10 (Homo sapiens, UniProt P22301); assay: SPR binding to immobilised IL-10; design: purchased ebioscience BMS/346; details: SPR Biacore T100, CM5 chip, 1X PBS pH 7.4, 25°C, 10 μL/min; steady-state affinity analysis, three independent repeats
U937 cells = assay: 7-AAD cell-viability assay; assay type: cell-based, human; details: two independent assays, flow cytometry
Procedure: 7-AAD assay: 7-AAD Viability Staining Solution was purchased from eBioscience (Cat. 00–6993). Briefly, 5 μL of 7-aad were added to 5×10^5 cells for 5 minutes, and 7-aad staining was measured by a BD Accuri flow cytometry.
In order for a peptide to be useful as potential drug candidates, its cytotoxicity has to be low. We evaluated the cytotoxicity of P1 and P2 using 7-AAD cell-viability assay (S5 Fig).

IL-10R1 = target: T1, IL-10R1 (Homo sapiens, UniProt Q13651); assay: SPR binding to immobilised IL-10R1; details: SPR Biacore T100, CM5 chip, 1X PBS pH 7.4, 25°C, 10 μL/min; steady-state affinity analysis, three independent repeats
T1 construct: purchased Creative BioMart, USA IL10RA-212H
T1 sequence (Q13651 22-578): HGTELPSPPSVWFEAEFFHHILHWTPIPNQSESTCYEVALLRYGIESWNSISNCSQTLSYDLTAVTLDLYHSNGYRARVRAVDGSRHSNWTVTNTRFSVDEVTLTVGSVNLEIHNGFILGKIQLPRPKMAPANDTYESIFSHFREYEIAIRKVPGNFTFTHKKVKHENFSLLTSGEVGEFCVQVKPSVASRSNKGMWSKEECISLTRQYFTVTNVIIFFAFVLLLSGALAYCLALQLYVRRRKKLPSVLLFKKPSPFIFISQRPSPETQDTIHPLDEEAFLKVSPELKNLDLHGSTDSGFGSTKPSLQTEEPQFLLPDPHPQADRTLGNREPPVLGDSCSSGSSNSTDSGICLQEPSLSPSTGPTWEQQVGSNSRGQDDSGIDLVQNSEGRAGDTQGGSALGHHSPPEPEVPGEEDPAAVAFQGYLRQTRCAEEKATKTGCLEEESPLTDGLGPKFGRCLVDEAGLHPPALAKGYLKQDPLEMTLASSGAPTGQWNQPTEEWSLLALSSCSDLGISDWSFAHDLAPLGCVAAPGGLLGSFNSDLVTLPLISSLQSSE

IL-10R on U937 cells = assay: Surface staining of IL-10 receptor (PE anti-IL10R antibody) on U937 cells by flow cytometry; assay type: cell-based, human; details: U937 stimulated overnight with LPS (4×10^−3 μM); P1 4.5 μM, P2 4.1 μM, P3 5.6 μM, P4 4.2 μM; MFI by flow cytometry
Procedure: Human macrophage cell line U937 was maintained in complete RPMI 1640 media (Gibco) supplemented with 10% heat inactivated FCS, 100 U of penicillin/ml and 100 μg of streptomycin/ml and were cultured at 37°C with 5% CO2.
In vitro stimulation of U937 cells: 2–5×10^5 of U937 cells were cultured in 1 mL of RPMI with 10% human serum containing 100 U of ampicillin and 100 U of streptomycin. The U937 cells were either unstimulated or stimulated with 4×10^−3 μM of LPS (Sigma, Cat. L3024-5MG) overnight, in the presence of different concentration of P1, P2 or P3 or anti-IL-10 (10 μg/mL, ~0.3 μM) or anti-IL-10R (10 μg/mL, ~0.1 μM) antibodies. Supernatants were collected and stored at -80°C till use.
Surface staining of IL-10 receptor on U937 cell membrane: 2–5×10^5 of U937 cells were stained with PE conjugated anti-IL10R antibody for 30 minutes on ice, then washed with PBS with 2% of FCS and analysed with an Acuri flowcytometor (BD, USA) as described previously.

MC/9 cells = assay: MC/9 cell proliferation, MTT assay; assay type: cell-based, mouse; details: 5×10^−5 μM IL-10, 1×10^4 cells, 48 h, media with 2×10^−5 μM IL4
Procedure: Murine mast cell MC/9 cell line was purchased from ATCC, USA and cultured following the protocols in the product sheets. Briefly, MC/9 cells were cultured in complete RPMI 1640 media (Gibco) supplemented with 10% heat inactivated fetal calf serum (FCS), 100 U of penicillin/ml and 100 μg of streptomycin/ml and were cultured at 37°C with 5% CO2 and 5 ng of murine IL-4 or 1 ng of human IL-10 as recommended by ATCC, with or without adding P1, P2 or P3 respectively. MC/9 cell proliferation was determined by MTT assay (purchased from ATCC, USA) following the instruction of manufacturer.
Mouse mast cell line MC/9 growth is IL-10 dependent. We therefore investigated whether P1 or P2 is able to prevent IL-10 mediated MC/9 cell growth. MC/9 cells were cultured at different numbers for 48 hours and cell proliferation was measured by MTT assay, which measures the MC/9 cell proliferation. […] Thus, cell number of 1×10^4 was selected in the assay.

With FFKKFFKKFFKKFFKK [P1] as the molecule, how does the Kd (IL-10) read?
The Kd was 8.94 ± 0.37 µM.

And the “cell death, 7-AAD (in words)” value (U937 cells)?
The value was “there is no significant difference for cell death in the presence or absence of P1 or P2”.

And the Kd (IL-10R1)?
The Kd was 16 ± 1.95 µM.

How did the “cell death, 7-AAD (in words)” value (U937 cells) turn out when FFRRFFRRFFRRFFRR [P2] was run?
Its value is “there is no significant difference for cell death in the presence or absence of P1 or P2”.

For Lipopolysaccharide [LPS], which “binding of PE anti-IL-10R antibody (clone 3F9) to IL-10R on U937 cells” value (IL-10R on U937 cells) is on record?
The value was “More antibody binds to IL-10R1 after LPS stimulation, and is positively correlated with the dose of LPS”.

B1: IL-10: Human IL10 purchased from ebioscience (Cat. No: BMS/346) (protein)
chain: SPGQGTQSENSCTHFPGNLPNMLRDLRDAFSRVKTFFQMKDQLDNLLLKESLLEDFKGYLGCQALSEMIQFYLEEVMPQAENQDPDIKAHVNSLGENLKTLRLRLRRCHRFLPCENKSKAVEQVKNAFNKLQEKGIYKAMSEFDIFINYIEAYMTMKIRN
For B1, which “increase in MC/9 cell proliferation” value (MC/9 cells) is on record?
Its value is “approximately 133%”.
